Structures can show the parent of a compound that is named as a salt. Where two headings read alike, the source gives them in different places.
Legend:
[1] = pKa of the organic compound; assay type: physicochemical; conditions: average of plural pKa values
Excerpt: The pKa of the organic compound can be determined by a neutralization titration method (Kagaku Binran Kiso-hen I and II (Handbook of Chemistry, basic I and II) (Ver. 4) edited by The Chemical Society of Japan, Maruzen Publishing, 1993). […] When the organic compound has a single pKa value, the value is employed as the pKa of the organic compound.

[2] = target: T1, FTH ferritin (Homo sapiens, UniProt P02794); assay: estimation of state of DOX in FTH ferritin internal cavity; conditions: 165 molecules of DOX per molecule of FTH ferritin, cavity volume 0.18 zL
T1 construct: made in house; host or cells: Escherichia coli BL21 (DE3), plasmid pET20-FTH
Excerpt: Ferritin has a cage shape having a diameter of 12 nm, and the diameter of an internal cavity thereof is 7 nm. Ideally, the volume of the internal cavity is 0.18 zL (zL: Zepto little, 10 to the negative power of 21). […] In view of this, it is necessary to disassemble ferritin once to allow DOX to be released in advance for quantification of DOX incorporated in ferritin by means of spectroscopic evaluation.

[3] = test system: FTH-BC-TBP ferritin; assay: one-step incorporation of DOX into mutant ferritin FTH-BC-TBP; assay type: physicochemical, human; conditions: pH 8, 50° C., 60 minutes, DOX 0.3 mg/L
Method: Total synthesis was carried out for a DNA encoding a human-derived ferritin H chain (FTH-BC-TBP) monomer in which a titanium recognizing peptide (minTBP1: RKLPDA (SEQ ID NO: 7)) was inserted for fusion at a flexible linker region between second and third α-helices counted from an N-terminus of a ferritin monomer comprising six α-helices. PCR was carried out using the synthesized DNA as a template as well as the following primers: 5′-[…]-3′ (SEQ ID NO: 8) and 5′-[…]-3′ (SEQ ID NO: 9). PCR was carried out using pET20 (Merck KGaA) as a template as well as the following primers: 5′-[…]-3′ (SEQ ID NO: 10) and 5′-[…]-3′ (SEQ ID NO: 11). […]
(§1) DOX was mixed with 1 mL of 50 mM Tris-HCl buffer (pH 8) that contains each mutate ferritin at a final concentration of 1 mg/mL, to achieve a final concentration of 0.3 mg/L, and then the resulting solutions were left to stand at 50° C. for 60 minutes. […] The concentration of contained protein was determined using the protein assay CBB solution (Nacalai Tesque, Inc.) as well as bovine albumin as a standard. The DOX concentration was determined based on analysis of the absorbance at 480 nm.

[4] = target: T2, HER2a-FTH ferritin (Homo sapiens, UniProt P02794); assay: one-step incorporation of DOX into HER2a-FTH ferritin; assay type: physicochemical; conditions: pH 9, 50° C., 60 minutes, DOX 0.3 mg/L
T2 construct: pET20-FTH carrying a DNA encoding a human-derived ferritin H chain monomer as a template; made in house; host or cells: Escherichia coli BL21 (DE3), plasmid pET20-HER2a-FTH
Method: First, PCR was carried out using pET20-FTH carrying a DNA encoding a human-derived ferritin H chain monomer as a template as well as the following primers: 5′-[…]-3′(SEQ ID NO: 15) and 5′-[…]-3′(SEQ ID NO: 16) in order to obtain a DNA encoding the human-derived ferritin H chain (HER2a-FTH) monomer in which a cancer recognition peptide (HER2a: MARSGL (SEQ ID NO: 14); M Houimel et al., Int. J. Cancer 92, 748-755. (2001) which is incorporated herein by reference in its entirety) is inserted and fused at the N-terminus of the ferritin monomer. The resulting PCR products were purified using Wizard DNA Clean-Up System (Promega Corporation), and then treated with restriction enzymes, Dpnl and Ndel (Takara Bio Inc.) for self-ligation in order to construct an expression plasmid (pET20-HER2a-FTH) carrying a gene encoding HER2a-FTH. […]
as §1, with “9)” for “8)”

[5] = test system: ferritin; conditions: cited from earlier work

T1 sequence (P02794 whole entry): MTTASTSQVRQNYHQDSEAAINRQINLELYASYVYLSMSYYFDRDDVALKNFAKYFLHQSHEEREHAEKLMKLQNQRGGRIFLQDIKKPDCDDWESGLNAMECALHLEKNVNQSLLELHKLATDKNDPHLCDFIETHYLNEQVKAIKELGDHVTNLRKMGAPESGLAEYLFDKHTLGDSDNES
T2 sequence (P02794 with tags, fused parts or gaps limits assumed): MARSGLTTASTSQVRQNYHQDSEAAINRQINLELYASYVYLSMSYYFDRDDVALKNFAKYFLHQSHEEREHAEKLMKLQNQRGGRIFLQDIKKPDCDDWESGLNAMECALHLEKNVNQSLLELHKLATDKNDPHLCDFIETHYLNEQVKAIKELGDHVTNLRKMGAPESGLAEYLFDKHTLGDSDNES

In the case of `COc1cccc2c1C(=O)c1c(O)c3c(c(O)c1C2=O)C[C@@](O)(C(=O)CO)C[C@@H]3OC1CC(N)C(O)C(C)O1` (some centres unmarked) [DOX, Doxorubicin hydrochloride], the pKa [1] is reported as 8.42, the “concentration of DOX in the internal cavity of ferritin” value [2] is reported as 890 g/L and the “incorporation efficiency of the reagent” value [3] is reported as 6.5 % (wt). For the same molecule, the “incorporation efficiency of the reagent” value [4] was 14.6 % (wt), the “doxorubicin molecules encapsulated in ferritin” value ([5]; denaturing with urea and refolding) was “approximately 33 molecules” and the “doxorubicin molecules encapsulated in ferritin” value ([5]; disassembly at pH 2, reassembly at pH 7-9) was “approximately 28 molecules”. For the same molecule, the “doxorubicin molecules encapsulated in ferritin” value ([5]; high pressure (200-800 MPa) for 6-20 hours) was 10-20 molecules and the “doxorubicin molecules encapsulated in ferritin” value ([5]; modified ferritin, pH 2 by addition of HCl) was 30-90 molecules.

Reference: patent US20210253651A1, “METHOD FOR PRODUCING ORGANIC COMPOUND-ENCAPSULATING FERRITIN” (Ajinomoto Co., Inc., priority 2018, published 2021)
